Results reported in patent publication US8263065B2, “Tumor suppression using human placental perfusate and human placenta-derived intermediate natural killer cells” (Anthrogenesis Corporation, priority 2007, dated 2012).

Tests used:
cultured PINK cells = experiment: qRT-PCR gene expression in lenalidomide- or pomalidomide-treated cultured PINK cells; format: cell-based, human; details: treated vs untreated cultured PINK cells
Description: RNA isolation and purification.
Quantitative real-time (qRT-PCR) analysis.

[1] = cited from earlier work

SMILES	stability at higher relative humidities [1]	other results
Nc1cccc2c1C(=O)N(C1CCC(=O)NC1=O)C2=O (racemic) [pomalidomide, 4-(Amino)-2-(2,6-dioxo(3-piperidyl))-isoindoline-1,3-dione]	–	Fold change of gene expression, LTA (cultured PINK cells): 2.68 fold
Nc1cccc2c1CN(C1CCC(=O)NC1=O)C2=O (stereo not shown) [Form B, 3-(4-amino-1-oxo-1,3 dihydro-isoindol-2-yl)-piperidene-2,6-dione]	–	stability in aqueous solvent systems ([1]; aqueous solvent systems): converts to Form E in aqueous solvent systems
Nc1cccc2c1CN(C1CCC(=O)NC1=O)C2=O (stereo not shown) [Form C, 3-(4-amino-1-oxo-1,3 dihydro-isoindol-2-yl)-piperidene-2,6-dione]	can convert to Form B	–
Nc1cccc2c1CN(C1CCC(=O)NC1=O)C2=O (stereo not shown) [Form D, 3-(4-amino-1-oxo-1,3 dihydro-isoindol-2-yl)-piperidene-2,6-dione]	will typically convert to Form B	–
